# From article PMC9898036, “VIP152 is a selective CDK9 inhibitor with pre-clinical in vitro and in vivo efficacy in chronic lymphocytic leukemia” (Leukemia, 2022)
# Legend:
# ERK2 = ERK2 (Homo sapiens, UniProt P28482); assay: KINOMEscan: ERK2; assay type: binding; conditions: 1000 nM, read-out: Percent Control
# FER = FER (Homo sapiens, UniProt P16591); assay: KINOMEscan: FER; assay type: binding; conditions: 1000 nM, read-out: Percent Control
# CAMK4 = CAMK4 (Homo sapiens, UniProt Q16566); assay: KINOMEscan: CAMK4; assay type: binding; conditions: 1000 nM, read-out: Percent Control
# [1] = test system: Glutamate, NMDA, Phencyclidine; assay: Eurofins Diversity Panel; assay type: binding; conditions: rat, Conc. 10 μM
# MERTK = MERTK (Homo sapiens, UniProt Q12866); assay: KINOMEscan: MERTK; assay type: binding; conditions: 1000 nM, read-out: Percent Control
# [2] = molecular target: Transporter, Dopamine (DAT) (Homo sapiens, UniProt Q01959); assay: Eurofins Diversity Panel; assay type: binding; conditions: hum, Conc. 10 μM
# Sequence of Transporter, Dopamine (DAT) (Q01959 whole entry): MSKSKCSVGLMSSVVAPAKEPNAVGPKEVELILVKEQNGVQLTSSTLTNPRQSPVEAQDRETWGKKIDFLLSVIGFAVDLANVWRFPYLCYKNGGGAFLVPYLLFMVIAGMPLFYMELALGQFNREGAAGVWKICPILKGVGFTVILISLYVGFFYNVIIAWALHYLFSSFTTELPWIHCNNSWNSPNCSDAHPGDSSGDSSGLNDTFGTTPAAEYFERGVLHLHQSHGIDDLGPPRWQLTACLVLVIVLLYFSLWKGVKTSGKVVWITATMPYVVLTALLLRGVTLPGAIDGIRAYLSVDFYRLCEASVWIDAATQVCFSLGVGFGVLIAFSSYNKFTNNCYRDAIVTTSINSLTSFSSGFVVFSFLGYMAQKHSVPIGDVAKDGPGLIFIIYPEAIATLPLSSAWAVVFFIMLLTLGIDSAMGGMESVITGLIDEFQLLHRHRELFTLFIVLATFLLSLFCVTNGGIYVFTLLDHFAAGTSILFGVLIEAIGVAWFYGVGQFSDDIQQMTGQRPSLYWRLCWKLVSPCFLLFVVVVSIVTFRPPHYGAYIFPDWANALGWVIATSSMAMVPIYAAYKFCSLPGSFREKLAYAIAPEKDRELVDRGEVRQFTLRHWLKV
# Glutamate, NMDA, Agonism = assay: Eurofins Diversity Panel; assay type: binding; conditions: rat, Conc. 10 μM
# CDK7/Cyclin H = CDK7/Cyclin H (Homo sapiens, UniProt P50613); assay: NanoBRET target engagement assay (HEK293); assay type: cell-based; set-up: host or cells: HEK293
# FLT3(ITD,F691L) = assay: KINOMEscan: FLT3(ITD,F691L); assay type: binding, human; conditions: 1000 nM
# GRK3 = GRK3 (Homo sapiens, UniProt P35626); assay: KINOMEscan: GRK3; assay type: binding; conditions: 1000 nM, read-out: Percent Control
# ERK4 = ERK4 (Homo sapiens, UniProt P31152); assay: KINOMEscan: ERK4; assay type: binding; conditions: 1000 nM, read-out: Percent Control
# [3] = test system: B-cells isolated from patients with treatment-naïve CLL; assay: Limiting-cell RNA sequencing (lcRNAseq); assay type: cell-based, human
# Experimental: CLL cells isolated from patients were sorted for CD5^+/CD19^+ into lysis buffer. Libraries were prepared and sequenced as previously described.
# P-TEFb’s role in regulating transcription through POLII CTD phosphorylation is a canonical function of this complex. To interrogate the transcriptional changes associated with VIP152 treatment, we treated B-cells, isolated from four patients with treatment-naïve CLL, with 1 µM VIP152 or DMSO for two hours followed by fluorescence-assisted cell sorting for 500 live (Sytox^−), CD45^+/CD5^+/CD19^+ cells (Fig. 3A). Our group has previously defined an analysis pipeline, named CLEAR, which identifies evenly distributed reads for differentially expressed gene (DEG) analysis. […] When we looked at the expression of these differentially abundant genes via an unsupervised clustered heatmap, we noted that there was high concordance between the patient samples with clustering dependent on treatment group (Fig. 3C). The treatment did induce decreased transcript abundance of genes previously reported to be controlled by CDK9 activity, namely JUNB, BTG1, and MCL1 [45, 46]. Downregulation of the anti-apoptotic MCL1 (LFC: −1.231056 & p-value = 0.02) likely contributes to the susceptibility of primary CLL cells to apoptosis (Fig. 2F, G). […] It has been established that AU-rich element (ARE) mRNA molecules are under tight temporal regulation and control a variety of cellular processes. Moreover, the relationship between P-TEFb mediated transcription and ARE-bearing mRNA has previously been described. […] We appreciate from our limiting-cell RNA sequencing experiments that the loss of tristetrapolin (ZFP36) transcripts (LFC: −4.02; adjusted p-value: 7.97*10^−40) and the upregulation of ribosomal transcripts, likely correspond to a possible compensatory mechanism by which these cells attempt to improve translational output and maximize transcript maintenance in response to VIP152-induced transcriptional shutdown. […] We looked at transcripts which had been shown by photoactivatable ribonucleoside cross-linking and immunoprecipitation (PAR-CLIP) to interact with ZFP36 [50]. […] Additionally, we chose to look at BCL2 transcript stability as ZFP36L1 has been shown in B cell lymphoma to negatively regulate BCL2 transcript stability. We performed an mRNA stability study on patient samples treated with VIP152 with Actinomycin-D and observed an increase in the half-lives of each of these transcripts including BCL2 (Fig. 3H–M).
# RIPK4 = RIPK4 (Homo sapiens, UniProt P57078); assay: KINOMEscan: RIPK4; assay type: binding; conditions: 100 nM, read-out: Percent Control
# Sequence of RIPK4 (P57078 whole entry): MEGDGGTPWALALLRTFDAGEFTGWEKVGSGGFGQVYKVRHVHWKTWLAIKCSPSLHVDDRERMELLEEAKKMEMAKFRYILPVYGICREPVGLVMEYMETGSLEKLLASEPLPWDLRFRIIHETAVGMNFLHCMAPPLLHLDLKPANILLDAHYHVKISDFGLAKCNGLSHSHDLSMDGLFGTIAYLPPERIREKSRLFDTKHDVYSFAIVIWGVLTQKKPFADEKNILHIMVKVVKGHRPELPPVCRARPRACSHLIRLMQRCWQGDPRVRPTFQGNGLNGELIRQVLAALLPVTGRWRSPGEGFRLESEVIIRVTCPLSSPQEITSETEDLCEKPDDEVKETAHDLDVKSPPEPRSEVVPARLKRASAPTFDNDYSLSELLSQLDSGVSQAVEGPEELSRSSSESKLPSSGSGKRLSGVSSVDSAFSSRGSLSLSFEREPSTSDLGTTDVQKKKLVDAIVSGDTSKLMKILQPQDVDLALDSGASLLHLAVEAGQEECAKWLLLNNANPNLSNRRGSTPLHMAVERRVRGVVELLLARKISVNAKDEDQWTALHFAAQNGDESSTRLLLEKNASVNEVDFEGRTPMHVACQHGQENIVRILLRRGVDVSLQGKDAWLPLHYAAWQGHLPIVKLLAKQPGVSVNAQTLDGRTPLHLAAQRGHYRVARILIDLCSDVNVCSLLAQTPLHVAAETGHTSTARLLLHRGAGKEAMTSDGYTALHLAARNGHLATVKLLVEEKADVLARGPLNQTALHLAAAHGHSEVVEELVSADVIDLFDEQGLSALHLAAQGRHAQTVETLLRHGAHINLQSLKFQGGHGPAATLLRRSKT
# LCK = LCK (Homo sapiens, UniProt P06239); assay: KINOMEscan: LCK; assay type: binding; conditions: 1000 nM, read-out: Percent Control
# CDK11 = CDK11 (Homo sapiens, UniProt Q9BWU1); assay: KINOMEscan: CDK11; assay type: binding; conditions: 1000 nM, read-out: Percent Control
# CAMK1G = CAMK1G (Homo sapiens, UniProt Q96NX5); assay: KINOMEscan: CAMK1G; assay type: binding; conditions: 1000 nM, read-out: Percent Control
# PFCDPK1(P.falciparum) = PFCDPK1(P.falciparum) (Plasmodium falciparum, UniProt P62344); assay: DiscoverX KINOMEscan kinase profiling: PFCDPK1(P.falciparum); assay type: binding; conditions: PFCDPK1(P.falciparum) (Entrez CDPK1); 100 nM; read-out: Percent Control
# RIPK2 = RIPK2 (Homo sapiens, UniProt O43353); assay: KINOMEscan: RIPK2; assay type: binding; conditions: 100 nM, read-out: Percent Control
# [4] = test system: GABAA, Flunitrazepam, Central; assay: Eurofins Diversity Panel; assay type: binding; conditions: rat, Conc. 10 μM
# JNK1 = JNK1 (Homo sapiens, UniProt P45983); assay: KINOMEscan: JNK1; assay type: binding; conditions: 1000 nM, read-out: Percent Control
# Sequence of JNK1 (P45983 whole entry): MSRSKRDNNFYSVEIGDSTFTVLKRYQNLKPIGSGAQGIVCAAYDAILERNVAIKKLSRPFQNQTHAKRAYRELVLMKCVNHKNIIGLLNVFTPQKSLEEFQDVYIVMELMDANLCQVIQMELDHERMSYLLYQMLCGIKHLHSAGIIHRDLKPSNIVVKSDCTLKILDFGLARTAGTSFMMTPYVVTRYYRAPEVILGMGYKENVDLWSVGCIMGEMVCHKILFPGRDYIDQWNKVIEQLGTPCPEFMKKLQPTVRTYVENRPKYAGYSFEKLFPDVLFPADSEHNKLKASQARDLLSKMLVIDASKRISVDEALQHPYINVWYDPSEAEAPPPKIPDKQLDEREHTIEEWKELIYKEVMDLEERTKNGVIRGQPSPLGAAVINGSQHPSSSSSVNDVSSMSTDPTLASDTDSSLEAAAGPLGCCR
# YSK4 = YSK4 (Homo sapiens, UniProt Q56UN5); assay: KINOMEscan: YSK4; assay type: binding; conditions: 100 nM, read-out: Percent Control
# Neuropeptide Y Y2 = Neuropeptide Y Y2 (Homo sapiens, UniProt P49146); assay: Eurofins Diversity Panel; assay type: binding; conditions: hum, Conc. 10 μM
# Sequence of Neuropeptide Y Y2 (P49146 whole entry): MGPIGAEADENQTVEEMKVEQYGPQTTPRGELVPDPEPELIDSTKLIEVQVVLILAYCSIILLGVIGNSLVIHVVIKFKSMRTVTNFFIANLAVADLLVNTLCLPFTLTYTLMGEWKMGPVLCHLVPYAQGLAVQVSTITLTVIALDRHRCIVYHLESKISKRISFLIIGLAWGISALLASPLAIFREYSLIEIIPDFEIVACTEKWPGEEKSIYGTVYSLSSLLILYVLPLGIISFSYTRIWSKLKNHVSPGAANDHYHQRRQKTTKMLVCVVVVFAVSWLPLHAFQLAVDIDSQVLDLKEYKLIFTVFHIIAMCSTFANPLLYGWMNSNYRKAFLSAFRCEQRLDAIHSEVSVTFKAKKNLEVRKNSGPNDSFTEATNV
# [5] = molecular target: Platelet Activating Factor (PAF) (Homo sapiens, UniProt P25105); assay: Eurofins Diversity Panel; assay type: binding; conditions: hum, Conc. 10 μM
# Sequence of Platelet Activating Factor (PAF) (P25105 whole entry): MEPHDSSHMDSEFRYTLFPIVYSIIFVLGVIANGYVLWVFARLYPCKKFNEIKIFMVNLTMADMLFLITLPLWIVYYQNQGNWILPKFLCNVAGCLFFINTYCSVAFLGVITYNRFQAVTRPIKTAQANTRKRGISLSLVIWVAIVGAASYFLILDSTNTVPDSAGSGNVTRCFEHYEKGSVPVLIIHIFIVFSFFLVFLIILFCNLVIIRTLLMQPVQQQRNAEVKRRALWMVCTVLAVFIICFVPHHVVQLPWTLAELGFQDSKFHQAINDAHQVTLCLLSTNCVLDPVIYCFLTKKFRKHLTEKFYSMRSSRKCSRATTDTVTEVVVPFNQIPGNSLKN
# [6] = test system: Calcium Channel L-Type Dihydropyridine; assay: Eurofins Diversity Panel; assay type: binding; conditions: rat, Conc. 10 μM
# TGFBR1 = TGFBR1 (Homo sapiens, UniProt P36897); assay: KINOMEscan: TGFBR1; assay type: binding; conditions: 100 nM, read-out: Percent Control
# Sequence of TGFBR1 (P36897 34-503): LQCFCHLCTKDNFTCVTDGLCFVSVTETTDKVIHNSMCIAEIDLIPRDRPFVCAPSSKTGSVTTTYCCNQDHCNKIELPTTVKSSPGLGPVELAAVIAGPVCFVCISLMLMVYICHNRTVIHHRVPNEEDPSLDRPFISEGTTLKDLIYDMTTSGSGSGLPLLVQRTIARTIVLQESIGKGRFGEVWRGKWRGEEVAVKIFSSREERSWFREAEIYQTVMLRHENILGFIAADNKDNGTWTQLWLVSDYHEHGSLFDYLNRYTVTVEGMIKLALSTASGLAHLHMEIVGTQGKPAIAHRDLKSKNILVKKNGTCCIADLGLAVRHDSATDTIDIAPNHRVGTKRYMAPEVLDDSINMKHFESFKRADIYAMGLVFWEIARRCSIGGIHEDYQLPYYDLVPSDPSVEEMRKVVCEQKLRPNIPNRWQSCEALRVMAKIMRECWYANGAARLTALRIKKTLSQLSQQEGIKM
# Histamine H1 = Histamine H1 (Homo sapiens, UniProt P35367); assay: Eurofins Diversity Panel; assay type: binding; conditions: hum, Conc. 10 μM
# SNRK = SNRK (Homo sapiens, UniProt Q9NRH2); assay: KINOMEscan: SNRK; assay type: binding; conditions: 100 nM, read-out: Percent Control
# Sequence of SNRK (Q9NRH2 whole entry): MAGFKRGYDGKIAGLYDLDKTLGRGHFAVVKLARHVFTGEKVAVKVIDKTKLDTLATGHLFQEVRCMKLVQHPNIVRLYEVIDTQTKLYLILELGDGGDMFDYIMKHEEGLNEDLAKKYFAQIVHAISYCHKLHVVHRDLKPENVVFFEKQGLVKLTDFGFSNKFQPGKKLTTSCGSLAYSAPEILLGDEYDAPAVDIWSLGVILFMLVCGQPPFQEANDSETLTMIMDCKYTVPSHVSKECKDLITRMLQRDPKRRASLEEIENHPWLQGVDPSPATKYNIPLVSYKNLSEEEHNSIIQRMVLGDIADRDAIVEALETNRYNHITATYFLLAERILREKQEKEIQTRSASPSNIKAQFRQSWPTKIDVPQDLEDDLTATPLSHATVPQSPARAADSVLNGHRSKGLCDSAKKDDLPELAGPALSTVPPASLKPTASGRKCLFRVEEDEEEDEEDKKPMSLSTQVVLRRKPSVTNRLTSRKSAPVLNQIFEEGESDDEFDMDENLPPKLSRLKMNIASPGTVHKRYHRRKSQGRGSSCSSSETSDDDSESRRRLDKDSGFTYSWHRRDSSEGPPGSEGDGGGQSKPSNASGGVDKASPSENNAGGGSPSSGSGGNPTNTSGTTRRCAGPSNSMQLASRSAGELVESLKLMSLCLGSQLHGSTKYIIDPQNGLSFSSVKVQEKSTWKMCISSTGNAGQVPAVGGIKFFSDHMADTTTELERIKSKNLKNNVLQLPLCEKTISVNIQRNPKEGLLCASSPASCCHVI
# Sequence of ERK2 (P28482 whole entry): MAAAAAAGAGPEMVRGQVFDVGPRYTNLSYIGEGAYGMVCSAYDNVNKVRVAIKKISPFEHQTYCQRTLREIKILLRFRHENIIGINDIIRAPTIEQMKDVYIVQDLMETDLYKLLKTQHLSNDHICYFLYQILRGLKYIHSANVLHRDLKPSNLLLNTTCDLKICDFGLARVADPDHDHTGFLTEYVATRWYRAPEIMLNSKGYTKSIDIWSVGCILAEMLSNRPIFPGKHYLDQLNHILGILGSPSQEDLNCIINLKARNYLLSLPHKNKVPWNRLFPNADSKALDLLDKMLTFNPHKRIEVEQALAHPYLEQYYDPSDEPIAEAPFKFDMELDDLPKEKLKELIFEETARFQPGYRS
# Sequence of FER (P16591 whole entry): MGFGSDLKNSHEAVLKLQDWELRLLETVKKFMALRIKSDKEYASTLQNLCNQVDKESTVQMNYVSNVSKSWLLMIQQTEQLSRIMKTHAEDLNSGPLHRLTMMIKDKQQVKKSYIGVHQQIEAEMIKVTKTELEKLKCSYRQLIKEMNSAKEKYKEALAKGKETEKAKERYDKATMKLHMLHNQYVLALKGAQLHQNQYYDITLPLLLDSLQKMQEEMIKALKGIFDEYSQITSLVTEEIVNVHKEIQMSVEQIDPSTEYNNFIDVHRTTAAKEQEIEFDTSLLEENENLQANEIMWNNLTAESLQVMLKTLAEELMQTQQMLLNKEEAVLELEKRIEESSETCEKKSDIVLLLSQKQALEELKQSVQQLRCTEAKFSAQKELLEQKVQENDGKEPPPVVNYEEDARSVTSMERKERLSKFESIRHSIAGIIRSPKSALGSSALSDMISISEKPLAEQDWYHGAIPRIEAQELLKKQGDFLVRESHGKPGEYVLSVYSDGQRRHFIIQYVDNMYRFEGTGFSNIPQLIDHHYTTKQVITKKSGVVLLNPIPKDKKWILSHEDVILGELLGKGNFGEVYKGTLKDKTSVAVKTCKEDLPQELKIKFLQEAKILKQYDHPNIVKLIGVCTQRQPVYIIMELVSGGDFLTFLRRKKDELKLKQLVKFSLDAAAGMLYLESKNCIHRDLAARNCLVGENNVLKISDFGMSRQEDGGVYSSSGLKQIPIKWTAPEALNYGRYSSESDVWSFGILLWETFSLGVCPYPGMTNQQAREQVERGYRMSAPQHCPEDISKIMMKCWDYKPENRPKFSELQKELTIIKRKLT
structure (smiles),measurement,setting,value
COc1cc(F)ccc1-c1cc(Nc2cc(CS(C)(=N)=O)ccn2)ncc1F (stereo not drawn) [VIP152],remaining binding at 1 µM,ERK2,99%
same,remaining binding at 1 µM,FER,97%
same,remaining binding at 1 µM,CAMK4,100%
same,% Inh.,[1],5%
same,remaining binding at 1 µM,MERTK,58%
same,inhibition at 10 µM,[2],31%
same,% Inh.,"Glutamate, NMDA, Agonism",3%
same,IC50 compared with other inhibitors,CDK7/Cyclin H,IC50 was higher than dinaciclib and KB-0742
same,Percent Control,"FLT3(ITD,F691L)",78%
same,remaining binding at 1 µM,GRK3,100%
same,remaining binding at 1 µM,ERK4,99%
same,MCL1 transcript LFC,"[3]; 1 µM, two hours vs DMSO",−1.231
same,ZFP36 transcript LFC,"[3]; 1 µM, two hours vs DMSO",−4.02
same,log2FoldChange A1BG,[3]; VIP152 2hr vs DMSO 2hr,0.4323
same,log2FoldChange A1BG-AS1,[3]; VIP152 2hr vs DMSO 2hr,0.777
same,log2FoldChange AAAS,[3]; VIP152 2hr vs DMSO 2hr,0.1502
same,log2FoldChange AAGAB,[3]; VIP152 2hr vs DMSO 2hr,0.6327
same,log2FoldChange AAMDC,[3]; VIP152 2hr vs DMSO 2hr,0.4489
same,remaining binding at 0.1 µM,RIPK4,100%
same,remaining binding at 1 µM,LCK,56%
same,remaining binding at 1 µM,CDK11,100%
same,remaining binding at 1 µM,CAMK1G,89%
same,remaining binding at 0.1 µM,PFCDPK1(P.falciparum),97%
same,remaining binding at 0.1 µM,RIPK2,100%
same,% Inh.,[4],6%
same,remaining binding at 1 µM,JNK1,82%
same,remaining binding at 0.1 µM,YSK4,100%
same,inhibition at 10 µM,Neuropeptide Y Y2,3%
same,inhibition at 10 µM,[5],6%
same,% Inh.,[6],7%
same,remaining binding at 0.1 µM,TGFBR1,100%
same,inhibition at 10 µM,Histamine H1,1%
same,remaining binding at 0.1 µM,SNRK,100%
